# Test system: COVID-19 infection
# Experiment: Phase IIa study: COVID-19 PRO daily self-score, symptom severity score (items 1-33, 0-132)
# Format: in vivo
smiles,measurement,setting,value
"CN(C)C(=O)COC(=O)Cc1ccc(OC(=O)c2ccc(NC(=N)N)cc2)cc1 [camostat, 4-[[4-[(Aminoiminomethyl)amino]benzoyl]oxy]benzeneacetic acid 2-(dimethylamino)-2-oxoethyl ester]","symptom severity score, ANCOVA linear mixed model, A: Camostat arm",day 3,−8.01 (2.13)
same,"symptom severity score, ANCOVA linear mixed model, B − A (placebo − camostat)",day 3,−1.34 (3.01)
same,"symptom severity score, Negative binomial model, A: Camostat arm",day 3,23.35 (3.02)
same,"symptom severity score, Negative binomial model, B − A",day 3,0.96 (0.13)
same,COVID-19 symptom severity score raw Mean,day 4,20.8
same,"symptom score, Fitzmaurice mixed effects model, A: Camostat arm",day 4,19.69 (2.6)
same,"symptom score, Fitzmaurice mixed effects model, B − A (placebo − camostat)",day 4,0.89 (2.8)
same,"symptom severity score, ANCOVA linear mixed model, A: Camostat arm",day 4,−11.29 (2.13)
same,"symptom severity score, ANCOVA linear mixed model, B − A (placebo − camostat)",day 4,−0.1 (3.02)
same,"symptom severity score, Negative binomial model, A: Camostat arm",day 4,20.17 (2.89)
same,"symptom severity score, Negative binomial model, B − A",day 4,1 (0.17)
same,COVID-19 symptom severity score raw Mean,day 5,17.7
same,"symptom score, Fitzmaurice mixed effects model, A: Camostat arm",day 5,16.57 (2.6)
same,"symptom score, Fitzmaurice mixed effects model, B − A (placebo − camostat)",day 5,5.84 (2.79)
same,"symptom severity score, ANCOVA linear mixed model, A: Camostat arm",day 5,−14.41 (2.13)
same,"symptom severity score, ANCOVA linear mixed model, B − A (placebo − camostat)",day 5,4.84 (3.01)
same,"symptom severity score, Negative binomial model, A: Camostat arm",day 5,17.14 (2.63)
same,"symptom severity score, Negative binomial model, B − A",day 5,1.27 (0.24)
same,COVID-19 symptom severity score raw Mean,day 6,14.1
same,"symptom score, Fitzmaurice mixed effects model, A: Camostat arm",day 6,12.53 (2.62)
same,"symptom score, Fitzmaurice mixed effects model, B − A (placebo − camostat)",day 6,6.9 (2.81)
same,"symptom severity score, ANCOVA linear mixed model, A: Camostat arm",day 6,−18.43 (2.15)
same,"symptom severity score, ANCOVA linear mixed model, B − A (placebo − camostat)",day 6,5.89 (3.02)
same,"symptom severity score, Negative binomial model, A: Camostat arm",day 6,13.4 (2.45)
same,"symptom severity score, Negative binomial model, B − A",day 6,1.38 (0.29)
same,COVID-19 symptom severity score raw Mean,day 7,12.6
same,"symptom score, Fitzmaurice mixed effects model, A: Camostat arm",day 7,11.37 (2.67)
same,"symptom score, Fitzmaurice mixed effects model, B − A (placebo − camostat)",day 7,4.68 (2.84)
same,"symptom severity score, ANCOVA linear mixed model, A: Camostat arm",day 7,−19.64 (2.2)
same,"symptom severity score, ANCOVA linear mixed model, B − A (placebo − camostat)",day 7,3.71 (3.05)
same,"symptom severity score, Negative binomial model, A: Camostat arm",day 7,12.09 (2.79)
same,"symptom severity score, Negative binomial model, B − A",day 7,1.23 (0.3)
same,COVID-19 symptom severity score raw Mean,day 8,11.4
same,"symptom score, Fitzmaurice mixed effects model, A: Camostat arm",day 8,9.57 (2.67)
same,"symptom score, Fitzmaurice mixed effects model, B − A (placebo − camostat)",day 8,5.4 (2.85)
same,"symptom severity score, ANCOVA linear mixed model, A: Camostat arm",day 8,−21.42 (2.2)
same,"symptom severity score, ANCOVA linear mixed model, B − A (placebo − camostat)",day 8,4.43 (3.06)
same,"symptom severity score, Negative binomial model, A: Camostat arm",day 8,10.6 (2.64)
same,"symptom severity score, Negative binomial model, B − A",day 8,1.28 (0.34)
same,COVID-19 symptom severity score raw Mean,day 9,10.7
same,"symptom score, Fitzmaurice mixed effects model, A: Camostat arm",day 9,8.86 (2.67)
same,"symptom score, Fitzmaurice mixed effects model, B − A (placebo − camostat)",day 9,5.13 (2.85)
same,"symptom severity score, ANCOVA linear mixed model, A: Camostat arm",day 9,−22.13 (2.2)
same,"symptom severity score, ANCOVA linear mixed model, B − A (placebo − camostat)",day 9,4.16 (3.06)
same,"symptom severity score, Negative binomial model, A: Camostat arm",day 9,9.94 (2.43)
same,"symptom severity score, Negative binomial model, B − A",day 9,1.25 (0.33)
same,COVID-19 symptom severity score raw Mean,day 10,10
same,"symptom score, Fitzmaurice mixed effects model, A: Camostat arm",day 10,8.24 (2.67)
same,"symptom score, Fitzmaurice mixed effects model, B − A (placebo − camostat)",day 10,4.67 (2.85)
same,"symptom severity score, ANCOVA linear mixed model, A: Camostat arm",day 10,−22.75 (2.2)
same,"symptom severity score, ANCOVA linear mixed model, B − A (placebo − camostat)",day 10,3.7 (3.06)
same,"symptom severity score, Negative binomial model, A: Camostat arm",day 10,9.36 (2.56)
same,"symptom severity score, Negative binomial model, B − A",day 10,1.2 (0.36)
same,COVID-19 symptom severity score raw Mean,day 11,9.3
same,"symptom score, Fitzmaurice mixed effects model, A: Camostat arm",day 11,7.25 (2.69)
same,"symptom score, Fitzmaurice mixed effects model, B − A (placebo − camostat)",day 11,4.44 (2.87)
same,"symptom severity score, ANCOVA linear mixed model, A: Camostat arm",day 11,−23.77 (2.22)
same,"symptom severity score, ANCOVA linear mixed model, B − A (placebo − camostat)",day 11,3.5 (3.08)
same,"symptom severity score, Negative binomial model, A: Camostat arm",day 11,8.49 (2.3)
same,"symptom severity score, Negative binomial model, B − A",day 11,1.17 (0.35)
same,COVID-19 symptom severity score raw Mean,day 12,9.6
same,"symptom score, Fitzmaurice mixed effects model, A: Camostat arm",day 12,8.18 (2.69)
same,"symptom score, Fitzmaurice mixed effects model, B − A (placebo − camostat)",day 12,2.39 (2.88)
same,"symptom severity score, ANCOVA linear mixed model, A: Camostat arm",day 12,−22.87 (2.22)
same,"symptom severity score, ANCOVA linear mixed model, B − A (placebo − camostat)",day 12,1.46 (3.09)
same,"symptom severity score, Negative binomial model, A: Camostat arm",day 12,9.06 (2.18)
same,"symptom severity score, Negative binomial model, B − A",day 12,0.94 (0.25)
same,COVID-19 symptom severity score raw Mean,day 13,9.7
same,"symptom score, Fitzmaurice mixed effects model, A: Camostat arm",day 13,7.87 (2.75)
same,"symptom score, Fitzmaurice mixed effects model, B − A (placebo − camostat)",day 13,2.11 (2.95)
same,"symptom severity score, ANCOVA linear mixed model, A: Camostat arm",day 13,−23.17 (2.29)
same,"symptom severity score, ANCOVA linear mixed model, B − A (placebo − camostat)",day 13,1.17 (3.15)
same,"symptom severity score, Negative binomial model, A: Camostat arm",day 13,8.9 (2.27)
same,"symptom severity score, Negative binomial model, B − A",day 13,0.88 (0.26)
same,COVID-19 symptom severity score raw Mean,day 14,8.2
same,"symptom score, Fitzmaurice mixed effects model, A: Camostat arm",day 14,7.8 (2.75)
same,"symptom score, Fitzmaurice mixed effects model, B − A (placebo − camostat)",day 14,2.24 (2.97)
same,"symptom severity score, ANCOVA linear mixed model, A: Camostat arm",day 14,−23.26 (2.29)
same,"symptom severity score, ANCOVA linear mixed model, B − A (placebo − camostat)",day 14,1.32 (3.16)
same,"symptom severity score, Negative binomial model, A: Camostat arm",day 14,8.11 (2.11)
same,"symptom severity score, Negative binomial model, B − A",day 14,1.03 (0.31)
same,symptom severity scores compared to placebo,"days 5 through 10, did not reach statistical significance",lower
